Data published in ChEMBL document CHEMBL1136679, “Phenylacetic acid derivatives as hPPAR agonists” (Bioorg Med Chem Lett, 2003).

Key:
[1] = target: T1, Peroxisome proliferator-activated receptor delta (Homo sapiens, UniProt Q03181)
T1 sequence (Q03181 whole entry): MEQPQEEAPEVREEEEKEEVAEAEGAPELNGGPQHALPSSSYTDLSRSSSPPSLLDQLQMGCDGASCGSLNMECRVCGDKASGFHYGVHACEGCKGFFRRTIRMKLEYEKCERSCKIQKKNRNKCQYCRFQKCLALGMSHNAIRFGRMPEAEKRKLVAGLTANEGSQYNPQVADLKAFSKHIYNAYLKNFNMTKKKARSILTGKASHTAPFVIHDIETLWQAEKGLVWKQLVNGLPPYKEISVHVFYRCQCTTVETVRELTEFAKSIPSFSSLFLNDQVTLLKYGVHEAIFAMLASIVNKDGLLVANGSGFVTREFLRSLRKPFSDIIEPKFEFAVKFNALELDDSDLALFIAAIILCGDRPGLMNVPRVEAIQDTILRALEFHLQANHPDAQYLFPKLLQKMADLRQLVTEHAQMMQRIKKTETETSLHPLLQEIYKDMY

[2] = target: T2, Peroxisome proliferator-activated receptor alpha (Homo sapiens, UniProt Q07869)
T2 sequence (Q07869 whole entry): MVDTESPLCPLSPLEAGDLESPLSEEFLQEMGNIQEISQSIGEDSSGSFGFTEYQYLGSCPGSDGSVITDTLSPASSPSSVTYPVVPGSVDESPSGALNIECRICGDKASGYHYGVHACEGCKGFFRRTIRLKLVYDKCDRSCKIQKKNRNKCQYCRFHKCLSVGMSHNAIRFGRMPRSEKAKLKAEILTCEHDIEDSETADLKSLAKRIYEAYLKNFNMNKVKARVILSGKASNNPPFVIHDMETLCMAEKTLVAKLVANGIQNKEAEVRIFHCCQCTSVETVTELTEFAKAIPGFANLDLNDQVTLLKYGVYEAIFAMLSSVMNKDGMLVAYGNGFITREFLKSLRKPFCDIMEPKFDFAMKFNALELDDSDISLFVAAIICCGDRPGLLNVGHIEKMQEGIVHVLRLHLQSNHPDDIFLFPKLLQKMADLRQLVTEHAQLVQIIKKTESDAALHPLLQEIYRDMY

[3] = target: T2, Peroxisome proliferator-activated receptor alpha; remark: listed apart in the source
[4] = target: T1, Peroxisome proliferator-activated receptor delta; remark: listed apart in the source
[5] = species: Mus musculus; assay type: functional, Plasma; settings: at 10 mg/kg/day
[6] = species: Rattus norvegicus; assay type: functional, Plasma; settings: at 10 mg/kg/day
[7] = species: Mus musculus; assay type: functional, Plasma; settings: at 10 mg/kg/day; remark: listed apart in the source
[8] = species: Mus musculus; settings: Plasma
[9] = species: Rattus norvegicus; assay type: functional, Plasma; settings: at 30 mg/kg/day
[10] = in vivo; settings: male, Sprague-Dawley, rat, po, 10 mg/kg
[11] = species: Rattus norvegicus; assay type: functional, Plasma; settings: at 30 mg/kg/day; remark: listed apart in the source
[12] = species: Rattus norvegicus; assay type: functional, Plasma; settings: at 30 mg/kg/day; remark: listed apart in the source
[13] = species: Rattus norvegicus; assay type: functional, Plasma; settings: at 10 mg/kg/day; remark: listed apart in the source
[14] = species: Mus musculus; assay type: functional, Plasma; settings: at 30 mg/kg/day
[15] = in vivo; settings: male, Sprague-Dawley, rat, iv
[16] = species: Rattus norvegicus; assay type: functional, Plasma; settings: at 10 mg/kg/day; remark: listed apart in the source
[17] = species: Mus musculus; assay type: functional, Plasma; settings: at 30 mg/kg/day; remark: listed apart in the source
[18] = species: Rattus norvegicus; assay type: functional, Plasma; settings: at 100 mg/kg/day
[19] = species: Rattus norvegicus; assay type: functional, Plasma; settings: at 100 mg/kg/day; remark: listed apart in the source
[20] = in vivo; settings: male, Sprague-Dawley, rat, iv; remark: listed apart in the source
[21] = species: Rattus norvegicus; assay type: functional, Plasma; settings: at 100 mg/kg/day; remark: listed apart in the source
[22] = species: Mus musculus; assay type: functional, Plasma; settings: at 100 mg/kg/day
[23] = species: Mus musculus; assay type: functional, Plasma; settings: at 100 mg/kg/day; remark: listed apart in the source
[24] = species: Mus musculus; assay type: functional, Plasma; settings: at 3 mg/kg/day
[25] = species: Rattus norvegicus; settings: in vivo, po, 10 mg/kg
[26] = species: Mus musculus; assay type: functional, Plasma; settings: at 30 mg/kg/day; remark: listed apart in the source
[27] = species: Rattus norvegicus; assay type: functional, Plasma; settings: at 30 mg/kg/day; remark: listed apart in the source
[28] = species: Rattus norvegicus; assay type: functional, Plasma; settings: at 30 mg/kg/day; remark: listed apart in the source
[29] = species: Rattus norvegicus; assay type: functional, Plasma; settings: at 3 mg/kg/day
[30] = species: Rattus norvegicus; assay type: functional, Plasma; settings: at 3 mg/kg/day; remark: listed apart in the source
[31] = species: Mus musculus; assay type: functional, Plasma; settings: at 3 mg/kg/day; remark: listed apart in the source
[32] = species: Mus musculus; assay type: functional, Plasma; settings: at 30 mg/kg/day; remark: listed apart in the source
[33] = species: Rattus norvegicus; assay type: functional, Plasma; settings: at 3 mg/kg/day; remark: listed apart in the source

Structure (SMILES) | EC50 [1] [nM] | IC50 [2] [nM] | EC50 ([3]; read-out: EC50) [nM] | IC50 [4] [nM] | Dec [5] [%] | Dec [6] [%] | Corr [7] [%] | Dec [9] [%] | bioavailability [10] [%] | Corr [11] [%] | Dec [12] [%] | Corr [13] [%] | half-life [15] [h] | Dec [16] [%] | clearance [20] [mL/min/kg] | further results
CCCc1c(OCCCSc2ccc(CC(=O)O)cc2Cl)ccc(C(=O)CC)c1O | 10 | 600 | 260 | 20 | – | – | – | – | – | – | – | – | – | – | – | –
CCCc1c(OCCCSc2ccc(CC(=O)O)cc2Cl)ccc2c(-c3ccccc3)coc12 [L-796449] | – | 54 | 18 | – | 72 | 13 | 77 | 66 | 84 | 56 | 88 | 27 | 2.1 | 67 | – | CL (mL.min-1.kg-1) [8]: 3.3; Corr [14]: 94%; Dec [17]: 86%
CCCc1c(OCCCSc2ccc(CC(=O)O)cc2Cl)ccc(/C(CC)=N/O)c1O | 9 | 100 | 74 | 10 | – | – | – | 65 | 33 | 44 | 15 | – | 2.8 | – | 5.7 | Dec [18]: 80%; Corr [19]: 89%; Dec [21]: 54%
CCCc1c(OCCCSc2ccc(CC(=O)O)cc2Cl)ccc2c(CC)noc12 [L-165461] | – | 570 | 247 | – | – | – | – | 42 | 50 | 29 | -14 | – | 1 | – | 17.6 | Dec [18]: 70%; Corr [19]: 66%; Dec [21]: 52%; Corr [22]: 33%; Dec [23]: 67%
CN(CCOc1ccc(CC2SC(=O)NC2=O)cc1)c1ccccn1 (stereo not given) [ROSIGLITAZONE] | – | – | – | – | 75 | 78 | 65 | 94 | – | 109 | 86 | 99 | – | 54 | – | EC50 [3]: Not Active
CCCc1c(OCCCSc2ccc(CC(=O)O)cc2Cl)ccc2c(CC)coc12 | – | 1730 | 1300 | – | – | – | – | – | – | – | – | – | – | – | – | Corr [14]: 74%; Dec [17]: 60%
CCCc1c(OCCCSc2ccc(CC(=O)O)cc2Cl)ccc(C(C)=O)c1O | 80 | 7400 | 1600 | 20 | – | – | – | – | – | – | – | – | – | – | – | –
CCCc1c(OCCCSc2ccc(CC(=O)O)cc2Cl)ccc2c(C(F)(F)F)noc12 | 5 | 310 | 125 | 10 | 46 | -53 | 71 | – | 100 | 95 | – | 83 | 4.7 | 52 | 2.6 | Dec [24]: 46%; nAUC [25]: 2520 ng·h/mL; Dec [26]: 81%; Dec [27]: -65%; Dec [28]: 74%; Dec [29]: 45%; Dec [30]: -34%; Corr [31]: 30%; Corr [32]: 96%; Corr [33]: 18%
